Test results reported in US9296755B2, “3,4-dihydro-1H-pyrimido[1,6-a]pyrimidin-6(2H)-one compounds and their therapeutic applications” (GlaxoSmithKline Intellectual Property Development Limited, priority 2013, dated 2016).

Tests used:
Lp-PLA2 in human plasma = target: T1, Lp-PLA2 in human plasma (Homo sapiens, UniProt Q13093); assay: Lp-PLA2 human plasma assay (Thio-PAF assay); type: biochemical; settings: pooled human plasma; read-out: pIC50 in the thio-PAF assay (converted)
T1 construct: from tissue; host or cells: pooled human plasma
T1 sequence (Q13093 22-441): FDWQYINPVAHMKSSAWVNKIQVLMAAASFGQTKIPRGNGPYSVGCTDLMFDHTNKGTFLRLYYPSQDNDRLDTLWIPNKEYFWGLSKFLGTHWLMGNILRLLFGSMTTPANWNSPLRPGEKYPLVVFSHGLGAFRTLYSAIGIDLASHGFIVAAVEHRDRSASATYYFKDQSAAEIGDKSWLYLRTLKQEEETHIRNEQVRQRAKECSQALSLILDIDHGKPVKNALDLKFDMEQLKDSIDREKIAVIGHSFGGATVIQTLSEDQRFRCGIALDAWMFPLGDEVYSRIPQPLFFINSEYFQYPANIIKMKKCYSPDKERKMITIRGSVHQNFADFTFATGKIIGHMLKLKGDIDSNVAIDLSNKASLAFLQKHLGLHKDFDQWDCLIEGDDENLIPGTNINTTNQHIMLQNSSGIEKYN
Excerpt: (3) Lipoprotein-Associated Phospholipase A2 (Lp-PLA2) Human Plasma Assay (Also Referred to as “Thio-PAF Assay”)
The human plasma assay utilizes a thioester analog of PAF (phosphatidylcholine), where hydrolysis yields to the formation of a phospholipid containing a free thiol group. The amount of thiol is quantitated continuously by reacting with CPM (7-diethylamino-3-(4′-maleimidylphenyl)-4-methylcoumarin), a maleimide which increases in fluoresence after Michael addition of thiols. This assay may detect the activity of Lp-PLA2 in human plasma, as determined by specific inhibition by Lp-PLA2 inhibitors.
The thio-PAF assay was run as a quenched 15 μL assay. Compounds source plate was prepared by making 1:3 (by volume) serial dilution of the compounds into pure DMSO on 384-well microplate. 0.01 μL of compounds on compound source plate were transferred to 384 well Greiner 784076 (black) low-volume plates by ECHO liquid dispenser. 8 μL pooled human plasma, which was previously aliquoted and frozen, was added. Plates were centrifuged for 10 sec at 500 rpm. After 30 minutes preincubation, 2 μL of substrate solution comprising 2.5 mM 2-thio-PAF [from ethanol stock], 32 μM CPM [from a DMSO stock] and 3.2 mM NEM (N-ethylmaleimide) [made fresh daily in DMSO] in assay buffer of 50 mM HEPES, pH 7.4, 150 mM NaCl, 1 mM CHAPS was added to 384 well Greiner 784076 (black) low-volume plates by BRAVO liquid handling station. After 2 mins, reaction was quenched with 5 μL of 5% aqueous trifluoroacetic acid (TFA). Plates were covered to protect from light and incubated for 40 min at room temperature. Plates were read at ex: 380/em: 485 using Envision microplate reader. PIC50 data, curve and QC analysis were conducted by using XLFit module in Excel.

[1] = target: T2, recombinant human Lp-PLA2 (Homo sapiens, UniProt Q13093); assay: Recombinant human Lp-PLA2 assay (rhLp-PLA2, PED6 assay); type: biochemical; settings: recombinant human Lp-PLA2, PED6 substrate; read-out: rhLp-PLA2 (PED6 assay) (pIC50) (converted)
T2 sequence (Q13093 22-441): T1 sequence (Q13093 22-441)
Excerpt: (1) Recombinant Human Lp-PLA2 Assay (rhLp-PLA2) (Also Referred to as “PED6” Assay)
N-((6-(2,4-dinitrophenyl)amino)-hexanoyl)-2-(4,4-difluoro-5,7-dimethyl-4-bora-3a,4a-diaza-s-indacene-3-pentanoyl)-1-hexadecanoyl-sn-glycero-3-phosphoethanolamine, triethylammonium salt (PED6) is a commercially available fluorescently-labeled phospholipid, which is commercially available from Invitrogene and Molecular Probes. There is a quenching […] and a Bodipy fluorescein (FL) group in the sn2 position. Upon cleavage with Lp-PLA2, the Bodipy FL group is liberated and then may result in an increase in fluorescence. Inhibitors of Lp-PLA2 therefore prevent this cleavage and no fluorescent increase is observed.
The PED6 assay was run as an unquenched 10 μL assay. The source plate containing the compounds to be tested was prepared by making 1:3 (by volume) serial dilution of the compounds within DMSO on 384-well microplate. Then, 0.01 μL of the compounds on compound source plate were transferred into 384 well Greiner 784076 (black) plates using ECHO liquid dispenser. 5 μL of recombinant human Lp-PLA2 enzyme (4 nM (or 110 pM) rhLp-PLA2 in assay buffer of 50 mM HEPES, pH 7.4, 150 mM NaCl, 1 mM CHAPS) was added to each well of the plate. Plates were centrifuged for 10 sec at 500 rpm. After 30 minutes preincubation, 5 μL of substrate (4 μM (or 5 μM) PED6 [from 5 mM DMSO stock] in assay buffer of 50 mM HEPES, pH 7.4, 150 mM NaCl, 1 mM CHAPS) was added to 384 well Greiner 784076 (black) plates. Plates were centrifuged for 10 sec at 500 rpm. The plate was covered to protect it from light and incubated for 20 min at room temperature. The plates were read for fluorescence intensity at ex: 480/em: 540 using ViewLux microplate imager for Envision spectrofluroimeters. PIC50 data, curve and QC analysis was conducted by using XL fit module in Excel.

| IC50 (Lp-PLA2 in human plasma) [nM] | IC50 [1] [nM] | Compound |
| --- | --- | --- |
| ≤ 100 |  | O=c1nc(OCc2ccc(F)c(F)c2)cc2n1CCCN2Cc1ccccc1 [Example E1, 1-benzyl-8-((3,4-difluorobenzyl)oxy)-3,4-dihydro-1H-pyrimido[1,6-a]pyrimidin-6(2H)-one] |
|  | 0.631 | O=c1nc(OCc2ccc(F)c(F)c2)cc2n1CCCN2Cc1ccc(Cl)cc1 [Example E2, 1-(4-chlorobenzyl)-8-((3,4-difluorobenzyl)oxy)-3,4-dihydro-1H-pyrimido[1,6-a]pyrimidin-6(2H)-one] |
| ≤ 100 |  | O=c1nc(OCc2ccc(F)c(F)c2)cc2n1CCCN2Cc1ccc(F)cc1 [Example E3, 8-((3,4-difluorobenzyl)oxy)-1-(4-fluorobenzyl)-3,4-dihydro-1H-pyrimido[1,6-a]pyrimidin-6(2H)-one] |
| ≤ 100 | 1 | COc1ccc(CN2CCCn3c2cc(OCc2ccc(F)c(F)c2)nc3=O)cc1 [Example E4, 8-((3,4-difluorobenzyl)oxy)-1-(4-methoxybenzyl)-3,4-dihydro-1H-pyrimido[1,6-a]pyrimidin-6(2H)-one] |
| ≤ 100 | 1.58 | COc1cccc(CN2CCCn3c2cc(OCc2ccc(F)c(F)c2)nc3=O)c1 [Example E6, 8-((3,4-difluorobenzyl)oxy)-1-(3-methoxybenzyl)-3,4-dihydro-1H-pyrimido[1,6-a]pyrimidin-6(2H)-one] |
| ≤ 100 | 0.501 | O=c1nc(OCc2ccc(Oc3ccc(Cl)c(C(F)(F)F)c3)c(F)c2)cc2n1CCCN2C1CC1 [Example E8, 8-((4-(4-chloro-3-(trifluoromethyl)phenoxy)-3-fluorobenzyl)oxy)-1-cyclopropyl-3,4-dihydro-1H-pyrimido[1,6-a]pyrimidin-6(2H)-one] |
| ≤ 100 |  | O=c1nc(OCc2ccc(Oc3cccc(C(F)(F)F)c3)c(F)c2)cc2n1CCCN2C1CC1 [Example E9, 1-cyclopropyl-8-((3-fluoro-4-(3-(trifluoromethyl)phenoxy)benzyl)oxy)-3,4-dihydro-1H-pyrimido[1,6-a]pyrimidin-6(2H)-one] |
| ≤ 100 | 0.794 | N#Cc1cc(COc2cc3n(c(=O)n2)CCCN3C2CC2)ccc1Oc1ccc(Cl)c(C(F)(F)F)c1 [Example E11, 2-(4-chloro-3-(trifluoromethyl)phenoxy)-5-(((1-cyclopropyl-6-oxo-2,3,4,6-tetrahydro-1H-pyrimido[1,6-a]pyrimidin-8-yl)oxy)methyl)benzonitrile] |
| ≤ 100 | 3.16 | CCCNC(=O)CN1CCCn2c1cc(OCc1ccc(F)c(F)c1)nc2=O [Example E13, 2-(8-((3,4-difluorobenzyl)oxy)-6-oxo-2,3,4,6-tetrahydro-1H-pyrimido[1,6-a]pyrimidin-1-yl)-N-propylacetamide] |
| ≤ 100 |  | O=C(CN1CCCn2c1cc(OCc1cc(F)c(F)c(F)c1)nc2=O)N1CCCC1 [Example E14, 1-(2-oxo-2-(pyrrolidin-1-yl)ethyl)-8-((3,4,5-trifluorobenzyl)oxy)-3,4-dihydro-1H-pyrimido[1,6-a]pyrimidin-6(2H)-one] |
| ≤ 100 | 0.501 | O=C(CN1CCCn2c1cc(OCc1cc(F)c(F)c(F)c1)nc2=O)N1CCOCC1 [Example E16, 1-(2-morpholino-2-oxoethyl)-8-((3,4,5-trifluorobenzyl)oxy)-3,4-dihydro-1H-pyrimido[1,6-a]pyrimidin-6(2H)-one] |
| ≤ 100 |  | CNC(=O)CN1CCCn2c1cc(OCc1ccc(F)c(F)c1)nc2=O [Example E17] |
| ≤ 100 |  | O=C(CN1CCCn2c1cc(OCc1ccc(F)c(F)c1)nc2=O)N1CCCC1 [Example E18, 8-((3,4-difluorobenzyl)oxy)-1-(2-oxo-2-(pyrrolidin-1-yl)ethyl)-3,4-dihydro-1H-pyrimido[1,6-a]pyrimidin-6(2H)-one] |
| ≤ 100 | 0.316 | CN1CCN(C(=O)CN2CCCn3c2cc(OCc2ccc(F)c(F)c2)nc3=O)CC1 [Example E19, 8-((3,4-difluorobenzyl)oxy)-1-(2-(4-methylpiperazin-1-yl)-2-oxoethyl)-3,4-dihydro-1H-pyrimido[1,6-a]pyrimidin-6(2H)-one] |
| ≤ 100 | 0.2 | O=C(CN1CCCn2c1cc(OCc1ccc(F)c(F)c1)nc2=O)N1CCC(F)(F)CC1 [Example E20, 8-((3,4-difluorobenzyl)oxy)-1-(2-(4,4-difluoropiperidin-1-yl)-2-oxoethyl)-3,4-dihydro-1H-pyrimido[1,6-a]pyrimidin-6(2H)-one] |
| ≤ 100 |  | O=C(CN1CCCn2c1cc(OCc1ccc(F)c(F)c1)nc2=O)N1CCCCC1 [Example E21, 8-((3,4-difluorobenzyl)oxy)-1-(2-oxo-2-(piperidin-1-yl)ethyl)-3,4-dihydro-H-pyrimido[1,6-a]pyrimidin-6(2H)-one] |
| ≤ 100 | 0.794 | O=C(CN1CCCn2c1cc(OCc1ccc(F)c(F)c1)nc2=O)N1CCOCC1 [Example E22, 8-((3,4-difluorobenzyl)oxy)-1-(2-morpholino-2-oxoethyl)-3,4-dihydro-H-pyrimido[1,6-a]pyrimidin-6(2H)-one] |
| ≤ 100 | 0.794 | O=C(CN1CCCn2c1cc(OCc1ccc(F)c(F)c1)nc2=O)N1CCC(F)CC1 [Example E23, 8-((3,4-difluorobenzyl)oxy)-1-(2-(4-fluoropiperidin-1-yl)-2-oxoethyl)-3,4-dihydro-1H-pyrimido[1,6-a]pyrimidin-6(2H)-one] |
| ≤ 100 |  | CCCNC(=O)CN1CCCn2c1cc(OCc1cc(F)c(F)c(F)c1)nc2=O [Example E24, 2-(6-oxo-8-((3,4,5-trifluorobenzyl)oxy)-2,3,4,6-tetrahydro-1H-pyrimido[1,6-a]pyrimidin-1-yl)-N-propylacetamide] |
